Experiments:
[1] = test system: Elongase; assay: Elongase activity in liver microsomes from STZ-induced diabetic rats; type: in vivo, rat; conditions: compared to control
Procedure: (§1) The desaturase and elongase enzyme activities in liver microsomes from streptozotocin (STZ)-induced diabetic rats was assayed at 2 and 7 weeks post-induction. Table 1 indicates the decrease in activities compared to a control, observed during the course of the experiment. An equivalent decrease in elongation activity in STZ-induced diabetic rats has been previously reported (Suneja et al., 1990, Biochim. Biophys. Acta, 1042: 81-85).

[2] = test system: Leukocytes; assay: Conversion of 18:3n-6 into 20:3n-6 in leukocytes from STZ-induced diabetic rats; type: in vivo, rat
[3] = test system: D6D; assay: D6D activity in liver microsomes from STZ-induced diabetic rats; type: in vivo, rat; conditions: compared to control
Procedure: as §1

[4] = test system: D5D; assay: D5D activity in liver microsomes from STZ-induced diabetic rats; type: in vivo, rat; conditions: compared to control
Procedure: as §1

[5] = test system: Leukocytes; assay: Conversion of 18:2n-6 into 20:2n-6 in leukocytes from STZ-induced diabetic rats; type: in vivo, rat; conditions: for Conversion of 18:2n-6 into 20:2n-6: leukocytes incubated for 24 h, mean ± S.D. of 6 rats
[6] = test system: 18:3n-3; assay: Elongation of [1-14C]18:3n-3 in yeast expressing human elongases (RP-HPLC); conditions: untagged elongase; 25 μM substrate; product 20:3n-3
From the text: (§2) For the expression of ELG1, ELG2, ELG3, ELG4, ELG5, ELG6 or ELG7 the yeast were transformed with pTh1009.1, pTh1014.1, pTh1015.1, pTh1021.1, pTh1018.1, pTh1041.1 or pTh1044.1, respectively. For the expression of ELG1/V5-His, ELG2/V5-His, ELG3/V5-His, ELG4/V5-His, ELG5/V5-His, ELG6/V5 -His or ELG7/V5-His the yeast were transformed with pTh1009.2, pTh1014.2, pTh1017.1, pTh1021.2, pTh1019.1, pTh1042.1 or pTh1045.1, respectively. Recombinant yeast cells were selected on SC-U medium.
(§3) Transformed yeast (approximately 3.2×10^6 cells/ml; O.D.600 0.4) were incubated in a 125 ml Erlenmeyer containing 10 ml of SC-U medium with 1% raffinose, 1% tergitol and 25 μM of the lithium salts of either [1-^14C]18:3n-3 (1 μCi), [1-^14C]18:3n-6 (1 μCi), [1-^14C]20:4n-6 (2 μCi), or [1-^14C]20:5n-3 (2 μCi). After 4 h incubation in an orbital incubator at 270 rpm and 30° C., cells reached the log phase and the transgene, expression was induced with galactose 30° C., cells reached the log phase and the transgene expression was induced with galactose (2% final concentration). The yeast were incubated for an additional 19 h and then harvested by centrifugation at 5000×g for 10 minutes at 4° C.
(§4) Cells were washed with Tris-HCl buffer (100 mM, pH 8.0) containing 0.1% BSA and total lipids were extracted as described below. The radioactivity from aliquots of the incubation medium, supernatant and cells was determined by liquid scintillation counting using a LS6500-Scintillation System (Beckman).
(§5) Alternatively, cells were resuspended in 1.5 ml of water and saponified with 2 ml of 10% KOH in ethanol. The total lipid extracts or the free fatty acids from the saponified samples were methylated using boron trifluoride in methanol at 90° C. for 30 min. The resultant methyl esters (FAME) were analyzed as described below.
(§6) Analyses of radiolabelled FAME were carried out on a Hewlett Packard 1090, series II chromatograph equipped with a diode array detector set at 205 nm, a radioisotope detector (model 171, Beckman, CA) with a solid scintillation cartridge (97% efficiency for ^14C-detection) and a reverse phase ODS (C-18) Beckman column (250 mm×4.6 mm i.d.; 5 μm particle size) attached to a pre-column with a μBondapak C-18 (Beckman) insert. FAME were separated isocratically with acetonitrile/water (95.5 v/v) at a flow rate of 1 ml/min and were identified by comparison with authentic standards. Alternatively, the eluted FAME were collected and the solvent evaporated. FAME were re-dissolved in hexane for further analysis by gas chromatography.

[7] = test system: 18:3n-6; assay: Elongation of [1-14C]18:3n-6 in yeast expressing human elongases (RP-HPLC); conditions: for Percent Elongation of 18:3n-6 to 20:3: product 20:3n-6; for Percent Elongation of 18:3n-6 to 22:3: product 22:3n-6
From the text: as §2, §3, §4, §5, §6

[8] = test system: 20:5n-3; assay: Elongation of [1-14C]20:5n-3 in yeast expressing human elongases (RP-HPLC); conditions: untagged elongase; 25 μM substrate; product 22:5n-3
From the text: as §2, §3, §4
Alternatively, cells were resuspended in 1.5 ml of water and saponified with 2 ml of 10% KOH in ethanol. The total lipid extracts or the free fatty acids from the saponified samples were methylated using boron trifluoride in methanol at 90° C. for 30 min. The resultant methyl esters (FAME) were analyzed as described below. […]

[9] = test system: 20:4n-6; assay: Elongation of [1-14C]20:4n-6 in yeast expressing human elongases (RP-HPLC); conditions: untagged elongase, 25 μM substrate
From the text: as §2, §3, §4, §5, §6

[10] = untagged elongase, 25 μM substrate

CN(N=O)C(=O)N[C@H]1C(O)O[C@H](CO)[C@@H](O)[C@@H]1O (stereo partly drawn) [STZ, 2-desoxy-2-methylnitrosoamino carbonyl amino-D-glucopyranose]
% Decrease of Elongase activity (18:3n-6 → 20:3n-6) ([1]; 2 weeks post-induction): 46%
% Decrease of Elongase activity (18:3n-6 → 20:3n-6) ([1]; 7 weeks post-induction): 43%
Conversion of 18:3n-6 into 20:3n-6 ([2]; 2 weeks post-induction, incubation time 0 h): 0 pmol of 20:3n-6 produced/mg cellular protein
Conversion of 18:3n-6 into 20:3n-6 ([2]; 2 weeks post-induction, incubation time 0.16 h, mean ± S.D. of 6 rats): 50 ± 8 pmol of 20:3n-6 produced/mg cellular protein
Conversion of 18:3n-6 into 20:3n-6 ([2]; 2 weeks post-induction, incubation time 0.5 h, mean ± S.D. of 6 rats): 115 ± 26 pmol of 20:3n-6 produced/mg cellular protein
Conversion of 18:3n-6 into 20:3n-6 ([2]; 2 weeks post-induction, incubation time 1 h, mean ± S.D. of 6 rats): 288 ± 23 pmol of 20:3n-6 produced/mg cellular protein
Conversion of 18:3n-6 into 20:3n-6 ([2]; 7 weeks post-induction, incubation time 0 h): 0 pmol of 20:3n-6 produced/mg cellular protein
Conversion of 18:3n-6 into 20:3n-6 ([2]; 7 weeks post-induction, incubation time 0.16 h, mean ± S.D. of 6 rats): 37 ± 9 pmol of 20:3n-6 produced/mg cellular protein
Conversion of 18:3n-6 into 20:3n-6 ([2]; 7 weeks post-induction, incubation time 0.5 h, mean ± S.D. of 6 rats): 112 ± 10 pmol of 20:3n-6 produced/mg cellular protein
Conversion of 18:3n-6 into 20:3n-6 ([2]; 7 weeks post-induction, incubation time 1 h, mean ± S.D. of 6 rats): 190 ± 92 pmol of 20:3n-6 produced/mg cellular protein
Conversion of 18:3n-6 into 20:3n-6 ([2]; 7 weeks post-induction, incubation time 24 h, mean ± S.D. of 6 rats): 1008 ± 98 pmol of 20:3n-6 produced/mg cellular protein
activity of the elongation system (18:3n-6 into 20:3n-6) ([2]; STZ group versus control, regardless of the time after the last I.P. STZ injection): significant increase
% Decrease of D6D activity (18:2n-6 → 18:3n-6) ([3]; 2 weeks post-induction): 28%
% Decrease of D6D activity (18:2n-6 → 18:3n-6) ([3]; 7 weeks post-induction): 33%
% Decrease of D5D activity (20:3n-6 → 20:4n-6) ([4]; 2 weeks post-induction): 33%
% Decrease of D5D activity (20:3n-6 → 20:4n-6) ([4]; 7 weeks post-induction): 41%
Conversion of 18:2n-6 into 20:2n-6 ([5]; 2 weeks post-induction): 322 ± 119 pmol of 20:2n-6 produced/mg cellular protein
Conversion of 18:2n-6 into 20:2n-6 ([5]; 7 weeks post-induction): 147 ± 22 pmol of 20:2n-6 produced/mg cellular protein
changes in the elongation of 18:2n-6 to 20:2n-6 ([5]; leukocytes from animals sacrificed 7 weeks after the STZ treatment): no significant changes
reduction in the elongation of 18:2n-6 to 20:2n-6 ([5]; leukocytes obtained 2 weeks after the STZ injection): approximately 50%

B1: ELG2: human PUFA elongase expressed in yeast from plasmid pTh1014.1 (protein, UniProt Q9NYP7 1-299, looked up)
Very long chain fatty acid …: MEHFDASLSTYFKALLGPRDTRVKGWFLLDNYIPTFICSVIYLLIVWLGPKYMRNKQPFSCRGILVVYNLGLTLLSLYMFCELVTGVWEGKYNFFCQGTRTAGESDMKIIRVLWWYYFSKLIEFMDTFFFILRKNNHQITVLHVYHHASMLNIWWFVMNWVPCGHSYFGATLNSFIHVLMYSYYGLSSVPSMRPYLWWKKYITQGQLLQFVLTIIQTSCGVIWPCTFPLGWLYFQIGYMISLIALFTNFYIQTYNKKGASRRKDHLKDHQNGSMAAVNGHTNSFSPLENNVKPRKLRKD
Percent Elongation of 18:3n-3 to 20:3 [6]: 16%
Percent Elongation of 18:3n-6 to 20:3 ([7]; V5-His tagged elongase): 73%
Percent Elongation of 18:3n-6 to 22:3 ([7]; V5-His tagged elongase): 11%
Percent Elongation of 18:3n-6 to 20:3 [7, 10]: 62%
Percent Elongation of 18:3n-6 to 22:3 [7, 10]: 3%
Percent Elongation of 20:5n-3 to 22:5 [8]: 59%
Percent Elongation of 20:4n-6 to 22:4 ([9]; product 22:4n-6): 39%
Percent Elongation of 20:4n-6 to 24:4 ([9]; product 24:4n-6): 1%

— patent US7297523B2, “Human elongase genes and uses thereof” (Xenon Pharmaceuticals Inc., priority 2000, dated 2007)
